One assay has as its target T1, Gox1122 (Gluconobacter oxydans, UniProt Q5FRV6).
T1 sequence (Q5FRV6 1-463): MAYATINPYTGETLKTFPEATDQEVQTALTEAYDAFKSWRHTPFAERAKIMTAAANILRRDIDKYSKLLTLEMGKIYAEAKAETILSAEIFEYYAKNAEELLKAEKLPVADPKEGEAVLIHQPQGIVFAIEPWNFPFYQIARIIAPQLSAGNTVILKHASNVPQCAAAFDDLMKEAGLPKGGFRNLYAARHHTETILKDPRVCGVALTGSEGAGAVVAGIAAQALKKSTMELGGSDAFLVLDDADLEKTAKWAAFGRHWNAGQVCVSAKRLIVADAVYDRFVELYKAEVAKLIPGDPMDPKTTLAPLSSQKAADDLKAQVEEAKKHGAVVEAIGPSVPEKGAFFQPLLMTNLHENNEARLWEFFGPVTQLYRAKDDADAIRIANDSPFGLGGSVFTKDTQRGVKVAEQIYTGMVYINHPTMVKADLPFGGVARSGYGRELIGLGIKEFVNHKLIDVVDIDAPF
Particulars: using NADPH, pH range of 4-10. The source says: The enzyme is used in a combined enzymatic reaction between the NADPH-dependent reductases (see above) that form α-hydroxy carbonyl compounds.

For a further assay, the target named is T2, Gox0313 (Gluconobacter oxydans, UniProt Q5FU50).
T2 sequence (Q5FU50 1-343): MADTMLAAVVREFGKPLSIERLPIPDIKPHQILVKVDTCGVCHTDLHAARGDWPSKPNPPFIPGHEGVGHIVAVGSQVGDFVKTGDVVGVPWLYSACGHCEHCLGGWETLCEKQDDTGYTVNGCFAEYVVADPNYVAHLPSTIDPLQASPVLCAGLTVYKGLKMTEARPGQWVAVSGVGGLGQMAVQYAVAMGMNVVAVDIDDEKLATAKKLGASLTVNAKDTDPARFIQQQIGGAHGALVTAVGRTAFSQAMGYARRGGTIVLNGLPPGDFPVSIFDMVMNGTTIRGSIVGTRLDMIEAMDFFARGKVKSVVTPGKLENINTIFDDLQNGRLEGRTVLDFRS
Put plainly: Enzyme activity assay (rate of NAD(P)H decrease at 340 nm), Gox0313. It counts as biochemical. The conditions noted are these: Tab. 6, Gox0313; substrate reduction, cofactor NADH; 10 mM substrate, pH 7.0, 30 °C. How it is done:
(§1) Measurment of enzyme activity: NADPH-dependent alpha-ketocarbonyl reductases were assayed by a routine method used for NAD(P)-linked enzymes by recording the rate of decrease of NADPH at 340 nm (ε = 6.22 mM^-1 x cm^-1)) with substrates at 30 °C. The reaction mixture (1 ml) for reduction of alpha-ketocarbonyl substrates contained 10 mM substrate, 40 mM potassium phosphate buffer pH 7.0, 0.025 mM NAD(P)H , and the enzyme. Reactions were induced by addition of enzyme or substrate. One unit of enzyme activity was defined as the amount of enzyme catalyzing the conversion of 1 µmol of pyridine nucleotide per min at 30 °C.
(§2) NADPH-dependent α-ketocarbonyl reductases were assayed by a routine method used for NAD(P)-linked enzymes by recording the rate of decrease of NADPH at 340 nm (ε = 6.22 mM^-1.cm^-1) with substrates at 30 °C. The reaction mixture (1 ml) for reduction of alpha-ketocarbonyl substrates contained 10 mM substrate, 40 mM potassium phosphate buffer pH 7.0, 0.025 mM NADPH , and the enzyme. Reactions were induced by addition of enzyme or substrate. One unit of enzyme activity was defined as the amount of enzyme catalyzing the conversion of 1 µmol of pyridine nucleotide per min at 30 °C.
(§3) For each enzyme (Gox0313, Gox0502, Gox0644, Gox0646, Gox1615, Gox2107, and Gox2684 respectively), fresh enzyme preparations were used to validate the substrate spectrum and the kinetic activity. […] Purified NAD(P)-dependent oxidoreductases were assayed at 30 °C by a routine method used for NAD(P)-linked enzymes by recording the rate of decrease of NAD(P)H at 340 nm (ε = […]) with substrates capable of reduction reactions. The standard reaction mixture (1 ml) for the reduction reactions of substrates contained 10 mM substrate, 40 mM potassium phosphate buffer (K-phosphate buffer) pH 7.0, 0.05 mM NAD(P)H, and the enzyme unless otherwise noted. Reactions were induced by addition of enzyme or substrate. One unit of enzyme activity was defined as the amount of enzyme catalyzing the conversion of 1 µmol of pyridine nucleotide per min at 30 °C. Measurement of the protein content was performed by the method of Bradford in Anal. Biochem. 72:248-254 (1976). Table 3: Summary of enzymatic activities with α-diketones, α-ketoaldehydes and /or α-ketoesters

Another assay deals with T3, Gox1615 (Gluconobacter oxydans, UniProt Q5FQJ0).
T3 sequence (Q5FQJ0 1-332): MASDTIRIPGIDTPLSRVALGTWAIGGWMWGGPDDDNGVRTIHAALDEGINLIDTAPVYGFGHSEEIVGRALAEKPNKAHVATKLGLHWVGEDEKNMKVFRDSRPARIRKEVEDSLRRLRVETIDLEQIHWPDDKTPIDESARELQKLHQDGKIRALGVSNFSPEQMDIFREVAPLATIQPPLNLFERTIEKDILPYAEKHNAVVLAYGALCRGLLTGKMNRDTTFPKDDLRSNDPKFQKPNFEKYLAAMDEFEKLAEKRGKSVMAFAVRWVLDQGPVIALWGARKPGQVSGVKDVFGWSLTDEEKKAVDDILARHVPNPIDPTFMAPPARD
Kind of assay: Enzyme activity assay (rate of NAD(P)H decrease at 340 nm), Gox1615. It counts as biochemical. Particulars: Tab. 5, Gox1615; cofactor NADPH; 10 mM substrate, pH 7.0, 30 °C. How it is done:
as §1, §2, §3

Assay [1] concerns the target T4, Gox2107 (Gluconobacter oxydans, UniProt Q5FP53). Put plainly: Enzyme activity assay (rate of NAD(P)H decrease at 340 nm), Gox2107. It counts as biochemical. How it is done: as §1, §2, §3
Another assay concerns the target T5, Gox2684 (Gluconobacter oxydans, UniProt Q5HXK5).
T5 sequence (Q5HXK5 1-357): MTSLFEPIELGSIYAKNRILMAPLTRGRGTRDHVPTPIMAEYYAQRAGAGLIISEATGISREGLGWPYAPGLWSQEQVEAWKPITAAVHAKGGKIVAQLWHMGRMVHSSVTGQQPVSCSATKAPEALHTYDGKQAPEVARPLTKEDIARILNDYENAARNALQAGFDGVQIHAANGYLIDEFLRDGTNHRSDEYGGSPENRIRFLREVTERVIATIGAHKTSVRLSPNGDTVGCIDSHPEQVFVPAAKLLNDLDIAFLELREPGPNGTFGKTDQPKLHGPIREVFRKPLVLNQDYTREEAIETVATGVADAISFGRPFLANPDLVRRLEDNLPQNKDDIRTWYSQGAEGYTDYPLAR
Kind of assay: Enzyme activity assay (rate of NAD(P)H decrease at 340 nm), Gox2684. It counts as biochemical. The conditions noted are these: Tab. 8, GOX2684; cofactor NADPH; 10 mM substrate, pH 7.0, 30 °C. Here is the method:
as §1, §2, §3

Assay [2] concerns the target T4, Gox2107. Put plainly: Enzyme kinetics (Lineweaver-Burk plots), Gox2107. It counts as biochemical. The conditions noted are these: NADPH-dependent reduction. How it is done:
Determination of pH and temperature optima and enzyme kinetics: The optimum pH for enzyme activities was determined by a modified method of Salusjärvi, T. et al., Appl. Microbiol. Biotechnol. 65:306-314 (2004) using the following buffer system (50 mM final concentration each): sodium acetate pH 4.5 - 6.5, potassium phosphate pH 6.5 - 8.0, Tris-HCl pH 8.0 - 10. Temperature optima for the biocatalysts were determined under standard reaction conditions at temperatures ranging from 20 - 80 °C. The Michaelis constant (Km) for the proteins was determined from purified enzyme by Lineweaver-Burk plots. Assays were performed at optimum pH for each enzyme and at 30 °C using the top substrate and a targeted substrate. The Km for each substrate was calculated using concentrations of 0.0025 to 10 mM, and the Km NAD(P)H and NAD(P) was calculated using concentrations of 0.01 to 0.5 mM
The Michaelis constants were determined from purified enzyme by Lineweaver-Burk plots. The Km and Vmax values for the substrates were calculated using concentrations of 0.025 to 10 mM, The optimal pH values and temperatures for enzyme activities are also shown in Tab. 11. Tab. 11: Summary of kinetic parameters

The target in assay [3] is T6, Gox0502 (Gluconobacter oxydans, UniProt Q5FTL6).
T6 sequence (Q5FTL6 1-361): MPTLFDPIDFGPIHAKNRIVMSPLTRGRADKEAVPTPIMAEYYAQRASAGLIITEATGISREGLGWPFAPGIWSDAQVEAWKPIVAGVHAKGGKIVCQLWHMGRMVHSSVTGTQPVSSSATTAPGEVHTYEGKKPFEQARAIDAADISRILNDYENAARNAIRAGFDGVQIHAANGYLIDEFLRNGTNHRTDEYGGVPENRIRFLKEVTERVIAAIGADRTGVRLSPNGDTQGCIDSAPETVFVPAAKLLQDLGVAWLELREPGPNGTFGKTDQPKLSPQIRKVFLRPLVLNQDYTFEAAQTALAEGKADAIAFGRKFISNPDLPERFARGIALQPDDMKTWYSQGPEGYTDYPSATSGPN
Put plainly: Enzyme kinetics (Lineweaver-Burk plots), Gox0502. The conditions noted are these: NADPH-dependent reduction.

Assay [4] addresses T6, Gox0502. Kind of assay: Enzyme activity assay (rate of NAD(P)H decrease at 340 nm), Gox0502. It counts as biochemical. Also noted: Strep-tag II (N); made in house; host or cells: E. coli BL21 or E. coli DH5α (pASK-IBA5). Particulars: Tab. 7, Gox0502; cofactor NADPH; 10 mM substrate, pH 7.0, 30 °C. Here is the method: as §1, §2, §3

Molecules are shown by their SMILES.

For the molecule `CC(=O)O` [acetic acid], at Gox1122, the “reverse reduction reaction (result in words)” value is “No reverse reduction reaction”.

In the case of `C=CC(C)=O` [3-buten-2-one], the “Specific Activity” value at Gox0313 is on record as 1.9 U/mg; at Gox1615, 0.7 U/mg; at Gox2107 [1] (Tab. 7, Gox2107, cofactor NADPH, 10 mM substrate, pH 7.0, 30 °C), 120 U/mg; at Gox0502 [4], 21 U/mg. In addition, at Gox2107 [1] (Gox2107, reduction with NADPH), the activities was 119 µmol/mg/min. The “Specific Activities” value on Gox2684 amounted to 8.8 U/mg. Also, the results for the Vmax on Gox2107 [2] and at Gox0502 [3] were 119 U/mg protein and 21 U/mg protein, respectively.

The values above are taken from patent publication EP2119770B1, “Production of alpha-oxyfunctionalized carbonyl compounds” (priority 2008, dated 2009).
